Test results from US9399626B2, “2-thiopyrimidinones” (Pfizer Inc., priority 2011, dated 2016).
Structures can show the parent of a compound that is named as a salt.

Target: T1, MPO (purified from human polynuclear leukocytes) (Homo sapiens, UniProt P05164)
T1 construct: purified from human polynuclear leukocytes; purchased Calbiochem/EMD Biosciences; host or cells: human polynuclear leukocytes (natural source)
Assay: MPO Amplex Red Activity Assay
Format: biochemical
Conditions: Table 1, 2 μM H2O2, pH 7.4
Procedure, shortened: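 Human leukocyte MPO […] oxidises 30 μM Amplex Red with 2 μM H2O2 in 50 mM NaPi pH 7.4, 150 mM NaCl, 1 mM DTPA, 2% DMSO. Resorufin fluorescence (ex 530/em 580 nm) read every 20 s, minus catalase background. kobs from the first 600 s, corrected for auto-inactivation, fit versus [I] for kinact/KI.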

T1 sequence (P05164 279-745 limits assumed): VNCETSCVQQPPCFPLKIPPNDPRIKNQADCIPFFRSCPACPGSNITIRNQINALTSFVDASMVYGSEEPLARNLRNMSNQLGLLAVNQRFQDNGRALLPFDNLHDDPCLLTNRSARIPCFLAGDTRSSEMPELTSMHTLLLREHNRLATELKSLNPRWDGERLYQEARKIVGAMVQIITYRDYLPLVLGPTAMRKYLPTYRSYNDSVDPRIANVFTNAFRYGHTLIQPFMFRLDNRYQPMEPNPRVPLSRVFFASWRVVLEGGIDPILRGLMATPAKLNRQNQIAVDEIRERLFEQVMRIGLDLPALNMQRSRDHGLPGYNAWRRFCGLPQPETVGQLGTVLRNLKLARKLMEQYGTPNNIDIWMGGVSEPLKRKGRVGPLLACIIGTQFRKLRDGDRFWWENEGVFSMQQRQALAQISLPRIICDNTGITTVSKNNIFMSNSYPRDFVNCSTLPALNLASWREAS
T1 sequence (P05164 165-273 limits assumed): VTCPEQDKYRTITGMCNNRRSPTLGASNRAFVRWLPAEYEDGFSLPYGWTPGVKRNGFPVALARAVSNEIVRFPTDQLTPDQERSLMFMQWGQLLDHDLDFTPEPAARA

SMILES	MPO kinact/Ki
COc1ccc(-c2cc(=O)[nH]c(=S)n2CC(=O)NC(=N)N)c(OC)c1 [Example 236, N-[amino(imino)methyl]-2-[6-(2,4-dimethoxyphenyl)-4-oxo-2-thioxo-3,4-dihydropyrimidin-1(2H)-yl]acetamide trifluoroacetate]	5740 1/s per M
COc1ccc(-c2cc(=O)[nH]c(=S)n2CCC(=O)N(C)C)c(OC)c1 [Example 237, 3-[6-(2,4-dimethoxyphenyl)-4-oxo-2-thioxo-3,4-dihydropyrimidin-1(2H)-yl]-N,N-dimethylpropanamide]	2360 1/s per M
COc1ccc(-c2cc(=O)[nH]c(=S)n2CC2CNCCO2)c(OC)c1 (centres unmarked) [Example 238, 6-(2,4-dimethoxyphenyl)-1-(morpholin-2-ylmethyl)-2-thioxo-2,3-dihydropyrimidin-4(1H)-one hydrochloride]	8740 1/s per M
CCOC(=O)C(C)n1c(-c2ccc(OC)cc2OC)cc(=O)[nH]c1=S (centres unmarked) [Example 239, ethyl 2-[6-(2,4-dimethoxyphenyl)-4-oxo-2-thioxo-3,4-dihydropyrimidin-1(2H)-yl]propanoate]	1850 1/s per M
CCOC(=O)CCn1c(-c2ccc(OC)cc2OC)cc(=O)[nH]c1=S [Example 240, ethyl 3-[6-(2,4-dimethoxyphenyl)-4-oxo-2-thioxo-3,4-dihydropyrimidin-1(2H)-yl]propanoate]	7070 1/s per M
COc1ccc(-c2cc(=O)[nH]c(=S)n2CC(=O)NCCN)c(OC)c1 [Example 241, N-(2-aminoethyl)-2-(6-(2,4-dimethoxyphenyl)-4-oxo-2-thioxo-3,4-dihydropyrimidin-1(2H)-yl)acetamide hydrochloride]	7060 1/s per M
COc1ccc(-c2cc(=O)[nH]c(=S)n2CCNCC(N)=O)c(OC)c1 [Example 242, N~2~-{2-[6-(2,4-dimethoxyphenyl)-4-oxo-2-thioxo-3,4-dihydropyrimidin-1(2H)-yl]ethyl}glycinamide]	142 1/s per M

Now from value to compound:

MPO kinact/Ki	SMILES
952 1/s per M	COc1ccc(-c2cc(=O)[nH]c(=S)n2CCNCC(=O)O)c(OC)c1 [Example 243, N-{2-[6-(2,4-dimethoxyphenyl)-4-oxo-2-thioxo-3,4-dihydropyrimidin-1(2H)-yl]ethyl}glycine hydrochloride]
8970 1/s per M	COc1ccc(-c2cc(=O)[nH]c(=S)n2CCOC(=O)CN)c(OC)c1 [Example 244, 2-[6-(2,4-dimethoxyphenyl)-4-oxo-2-thioxo-3,4-dihydropyrimidin-1(2H)-yl]ethyl glycinate tosylate]
1520 1/s per M	COc1ccc(-c2cc(=O)[nH]c(=S)n2CCCNCCO)c(OC)c1 [Example 245, 6-(2,4-dimethoxyphenyl)-1-{3-[(2-hydroxyethyl)amino]propyl}-2-thioxo-2,3-dihydropyrimidin-4(1H)-one]
246 1/s per M	COc1ccc(-c2cc(=O)[nH]c(=S)n2CCOCC(=O)O)c(OC)c1 [Example 246, {2-[6-(2,4-dimethoxyphenyl)-4-oxo-2-thioxo-3,4-dihydropyrimidin-1(2H)-yl]ethoxy}acetic acid]
3060 1/s per M	COc1ccc(-c2cc(=O)[nH]c(=S)n2Cc2cnc(C)cn2)c(OC)c1 [Example 247, 6-(2,4-dimethoxyphenyl)-1-[(5-methylpyrazin-2-yl)methyl]-2-thioxo-2,3-dihydropyrimidin-4(1H)-one]
3590 1/s per M	COc1ccc(-c2cc(=O)[nH]c(=S)n2CCS(N)(=O)=O)c(OC)c1 [Example 248, 2-[6-(2,4-dimethoxyphenyl)-4-oxo-2-thioxo-3,4-dihydropyrimidin-1(2H)-yl]ethanesulfonamide]
1050 1/s per M	COc1ccc(-c2cc(=O)[nH]c(=S)n2CCNc2ncc[nH]2)c(OC)c1 [Example 249, 6-(2,4-dimethoxyphenyl)-1-[2-(1H-imidazol-2-ylamino)ethyl]-2-thioxo-2,3-dihydropyrimidin-4(1H)-one]
